In patent US4935418A, “Medical compositions of 1-aryloxy-2,3,4,5-tetrahydro-3-benzazepines and use thereof” (Hoechst-Roussel Pharmaceuticals Inc., priority 1988, dated 1990):
Where a name gives a salt, the structure may show the parent alone.

Experiments:
Format in all cases: in vivo
[1] = system: 5-hydroxytryptophan induced seizures in rats; test: potentiation of 5-hydroxytryptophan induced seizures in rats; settings: Rattus norvegicus, ip, intraperitoneal, read-out: ED50 (potentiation of 5-hydroxytryptophan induced seizures in 50% of the animals)
Text: The antidepressant activities of some of the compounds of the invention expressed in terms of a potentiation of 5-hydroxytryptophan induced seizures in 50% of the animals is given in Table II.

[2] = system: spontaneous hypertensive rat; test: antihypertensive activity in the spontaneous hypertensive rat, indirect tail cuff method; settings: 50 mg/kg of body weight, oral, three days, measured on third day
Protocol: In this procedure a group of five animals are treated orally for three days with the test compound in relation to the control group of the same number. The drop in blood pressure is measured on the third day following administration.

[3] = system: tetrabenazine induced ptosis in mice; test: inhibition of tetrabenazine induced ptosis in mice; settings: Mus musculus, oral, read-out: ED50 (50% inhibition of tetrabenazine-induced ptosis)
Text: The antidepressant activities of some of the compounds of the invention expressed in terms of a 50% inhibition of ptosis of tetrabenazine-induced ptosis in mice is given in Table I.

[4] = system: 2-phenyl-1,4-benzoquinone-induced writhing in mice; test: 2-phenyl-1,4-benzoquinone-induced writhing test in mice; settings: Mus musculus, sc
Text: The compounds of the invention are also useful as analgesic agents due to their ability to alleviate pain in mammals. […] Exptl. Biol. Med., 95, 729 (1957)].

| Structure (SMILES) | ED50 [1] | Decrease in Blood Pressure (mean arterial) [2] | further results |
| --- | --- | --- | --- |
| COc1ccc(OC2CNCCc3cc(OC)c(OC)cc32)cc1.O=C(O)/C=C\C(=O)O (centres unmarked) [7,8-Dimethoxy-1-(4-methoxyphenoxy)-2,3,4,5-tetrahydro-3-benzazepine maleate] | 0.9 mg/kg |  |  |
| CC(CN)N1CCc2ccccc2C(Oc2ccc(C(F)(F)F)cc2)C1 (centres unmarked) [3-(2-Amino-1-methyl)ethyl-2,3,4,5-tetrahydro-1-(p-trifluoromethylphenoxy)-3-benzazepine dioxalate] |  | 51 mm HG |  |
| COc1cc2c(cc1OC)C(Oc1ccccc1)CN(C)CC2.O=C(O)C(=O)O (centres unmarked) [7,8-Dimethoxy-3-methyl-1-phenoxy-2,3,4,5-tetrahydro-3-benzazepine oxalate] | 7.5 mg/kg |  | ED50 [3]: 3.8 mg/kg; inhibition in vivo at 20 mg/kg ([4]; subcutaneous, mice): 58% |
| Clc1cccc(OC2CN(CC3CC3)CCc3ccccc32)c1 (centres unmarked) [1-(m-Chlorophenoxy)-3-cyclopropylmethyl-2,3,4,5-tetrahydro-3-benzazepine oxalate] |  |  | inhibition in vivo at 25 mg/kg ([4]; subcutaneous, mice): 66% |
| COc1cc2c(cc1OC)C(Oc1cccc(Cl)c1)CNCC2.O=C(O)C(=O)O (centres unmarked) [1-(m-Chlorophenoxy)-7,8-dimethoxy-2,3,4,5-tetrahydro-3-benzazepine oxalate] | 1.1 mg/kg |  | ED50 [3]: 4.2 mg/kg |
| Br.COc1ccc(OC2CN(C)CCc3ccccc32)cc1 (centres unmarked) [1-(p-Methoxyphenoxy)-3-methyl-2,3,4,5-tetrhydro-3-benzazepine hydrobromide] |  | 48 mm HG | inhibition in vivo at 20 mg/kg ([4]; subcutaneous, mice): 46% |
| COc1cc2c(cc1OC)C(Oc1ccc(C(F)(F)F)cc1)CNCC2 (centres unmarked) [7,8-Dimethoxy-2,3,4,5-tetrahydro-1-(p-trifluoromethylphenoxy)-3-benzazepineoxalate] |  | 49 mm HG |  |
| N=C(N)NCCN1CCCCCCC1 [guanethidine, reference compound] |  | 20 mm HG |  |
| COc1cc2c(cc1OC)C(Oc1ccccc1)CNCC2.O=C(O)C(=O)O (centres unmarked) [7,8-Dimethoxy-1-phenoxy-2,3,4,5-tetrahydro-3-benzazepine oxalate] | 0.85 mg/kg |  | ED50 [3]: 3.7 mg/kg |
| COc1cc2c(cc1OC)C(Oc1ccc(F)cc1)CNCC2.O=C(O)/C=C\C(=O)O (centres unmarked) [7,8-Dimethoxy-1-(4-fluorophenoxy)-2,3,4,5-tetrahydro-3-benzazepine maleate] | 2.9 mg/kg |  |  |
| Br.Cc1ccc(OC2CN(C)CCc3ccccc32)cc1 (centres unmarked) [3-Methyl-1-(p-methylphenoxy)-2,3,4,5-tetrahydro-3-benzazepine Hydrobromide] |  | 35 mm HG |  |
| CNCCN1CCc2ccccc2C(Oc2ccc(C(F)(F)F)cc2)C1.O=C(O)C(=O)O.O=C(O)C(=O)O (centres unmarked) [3-(2-Methylaminoethyl)-2,3,4,5-tetrahydro-1-(p-trifluoromethylphenoxy)-3-benzazepine dioxalate] |  | 33 mm HG |  |
| COc1cc2c(cc1OC)C(Oc1ccc(C(F)(F)F)cc1)CN(C)CC2.Cl (centres unmarked) [7,8-Dimethoxy-3-methyl-2,3,4,5-tetrahydro-1-(p-trifluoromethylphenoxy)-3-benzazepine hydrochloride] |  | 43 mm HG | inhibition in vivo at 5.7 mg/kg ([4]; subcutaneous, 5.7 mg/kg, mice): 50% |
| NCCN1CCc2ccccc2C(Oc2cccc(Cl)c2)C1.O=C(O)C(=O)O.O=C(O)C(=O)O (centres unmarked) [3-(2-Aminoethyl)-1-(m-chlorophenoxy)-2,3,4,5-tetrahydro-3-benzazepine dioxalate] |  |  | ED50 [3]: 7.5 mg/kg |
| CCC(=O)O[C@](Cc1ccccc1)(c1ccccc1)[C@H](C)CN(C)C [propoxyphene, reference compound] |  |  | inhibition in vivo at 3.9 mg/kg ([4]; read-out: Inhibition of Writhing): 50% |
| COc1cc2c(cc1OC)C(Oc1ccc(C)cc1)CN(C)CC2 (centres unmarked) [7,8-Dimethoxy-3-methyl-1-(4-methylphenoxy)-2,3,4,5-tetrahydro-3-benzazepinemaleate] | 0.9 mg/kg |  |  |
| CNCCCN1c2ccccc2CCc2ccccc21 [desipramine, reference compound] |  |  | ED50 [3]: 2.3 mg/kg |
| COc1ccc(OC2CN(C)CCc3cc(OC)c(OC)cc32)cc1 (centres unmarked) [7,8-Dimethoxy-1-(4-methoxyphenoxy)-3-methyl-2,3,4,5-tetrahydro-3-benzazepine hydrochloride] |  |  | inhibition in vivo at 7.6 mg/kg ([4]; subcutaneous, 7.6 mg/kg, mice): 50% |
| FC(F)(F)c1ccc(OC2CNCCc3ccccc32)cc1.O=C(O)C(=O)O (centres unmarked) [1-(p-Trifluoromethylphenoxy)-2,3,4,5-tetrahydro-3-benzazepine oxalate] | 2.9 mg/kg |  |  |
| Clc1cccc(OC2CN(CCc3ccccc3)CCc3ccccc32)c1 (centres unmarked) [1-(m-Chlorophenoxy)-3-(2-phenylethyl)-2,3,4,5-tetrahydro-3-benzazepine oxalate] |  |  | inhibition in vivo at 25 mg/kg ([4]; subcutaneous, mice): 42% |
| NCCN1CCc2ccccc2C(Oc2ccc(C(F)(F)F)cc2)C1.O=C(O)C(=O)O.O=C(O)C(=O)O (centres unmarked) [3-(2-Aminoethyl)-2,3,4,5-tetrahydro-1-(p-trifluoromethylphenoxy)-3-benzazepine dioxalate] |  | 61 mm HG |  |
| NCCCN1CCc2ccccc2C(Oc2ccc(C(F)(F)F)cc2)C1 (centres unmarked) [3-(3-Aminopropyl)-2,3,4,5-tetrahydro-1-(p-trifluoromethylphenoxy)-3-benzazepine dimaleate] |  |  | inhibition in vivo at 8.2 mg/kg ([4]; subcutaneous, 8.2 mg/kg, mice): 50% |
| CCCN1CCc2cc(OC)c(OC)cc2C(Oc2ccccc2)C1.O=C(O)C(=O)O (centres unmarked) [7,8-Dimethoxy-1-phenoxy-3-(n-propyl)-2,3,4,5-tetrahydro-3-benzazepine oxalate] | 0.7 mg/kg |  |  |
